Each block holds one compound with its values, some of them ahead of it.
Columns and labels:
Pin1 acetylation = Pin1 acetylation in cells (Co-IP with anti-Flag antibody, immunoblotting with anti-acetyl lysine antibody); type: cell-based
Text: FIG. 1 depicts HTS results for glucose starvation induced Pin1 deacetylation in cells 100. Different stress tests, such as heat shock, ultraviolet radiation, and glucose starvation (Glu^−), may produce an extracellular stimulus that could transform one or more cellular responses related to cell growth, differentiation, activation of transcript factors, glucose metabolism, control of proteins synthesis, and regulation of cell cycle. Among these stresses testes, glucose starvation (Glu^−), may reduce Pin1 acetylation without affecting its protein expression (FIG. 1 A). […] Protein acetylation may be catalytically modulated by a particular pair of histone acetyl transferase (HAT) and histone deacetylase (HDAC) (Yang and Seto, 2007). To identify the HAT and HDAC that modulates Pin1 acetylation, Flag-tagged Pin1 was expressed with several HATs including p300, CBP or GCN5 in cells, followed by co-immunoprecipitation (Co-IP) with anti-Flag antibody and immunoblotting with anti-acetyl lysine antibody. […] Moreover, Pin1 Co-IPed with p300, supporting that p300 is a HAT for Pin1. For the corresponding HDAC, various HDAC inhibitors targeting different HDAC categories were used, including Trichostatin A (TSA) and MS-275 for class I and II HDACs as well as Nicotinamide (NAM) and Splitomicin (Splito) for class III HDACs.

[1] = system: Pin1 and SIRT1 interaction; assay: Pin1 and SIRT1 interaction by Co-IP and co-immunostaining; type: cell-based; conditions: Co-IP (FIG. 1 K) and co-immunostaining (FIG. 1 L)
Text: Out of the seven Sirtuin family members, SIRT1, 2, 6, and 7 associated with Pin1 as shown by Co-IP and GST pull-down (FIG. 1 F). However, only SIRT1 reduced Pin1 acetylation (FIG. 1 G). Furthermore, overexpression of wild-type (WT), but not its catalytic dead (H363Y) mutant, induced Pin1 deacetylation in cells (FIG. 1 H). […] In addition, since other studies have shown that glucose starvation activates SIRT1 activity, an investigation was made to know whether glucose starvation-induced Pin1 deacetylation is mediated by SIRT1.

[2] = HDAC inhibitors in cells, FIG. 1 E

- Pin1 binding with SIRT1 [1]: increased binding with SIRT1
SMILES: O=CC[C@@H](O)[C@H](O)[C@H](O)CO [2-DG, 2-deoxyglucose]
- effect on Pin1 acetylation (Pin1 acetylation; mimicking glucose starvation, FIG. 1 B): reduction in Pin1 acetylation in a time- or dose-dependent manner

SMILES: NC(=O)c1cccnc1 [NAM, Nicotinamide]
- effect on Pin1 acetylation (Pin1 acetylation; [2]): increased Pin1 acetylation

SMILES: CCCCCCCCCCCCCCCc1cccc(O)c1C(=O)O [Anacardic acid]
- effect on p300-increased Pin1 acetylation (Acetyl-Pin1) (Pin1 acetylation; cells overexpressing p300 with Flag-Pin1, FIG. 1 D): reversed

SMILES: O=C1CCc2c(ccc3ccccc23)O1 [Splito, Splitomicin]
- effect on Pin1 acetylation (Pin1 acetylation; [2]): increased Pin1 acetylation
